How the values were obtained:
[1] = target: T1, human serotonin transporter (Homo sapiens, UniProt P31645); assay: Serotonin transporter reuptake inhibition assay (prior art); assay type: cell-based; details: at 100 nM; across serotonin, norepinephrine, and dopamine transporters
T1 construct: expressed in transfected cells; host or cells: HEK-293
Description: Serotonin transporter reuptake inhibition was assayed using the method described by Gu H. et al., J Biol Chem., 1994, 269, p […], the entire contents of which are incorporated herein by reference. Recombinant HEK-293 cells with human serotonin transporter were plated. Test compounds were pre-incubated with cells (2×10^5/ml) in modified Tris-HEPES buffer at pH 7.1 for 20 min at 25° C. and were incubated for an additional 10 min after addition of 65 nM of [3H]Serotonin. Bound cells were filtered and counted to determine [3H]Serotonin uptake. Reduction of [3H]Serotonin uptake by 50 percent or more (≧50%) relative to 10 μM fluoxetine indicated significant inhibitory activity.

[2] = target: T1, human serotonin transporter; details: at 100 nM; cited from earlier work
[3] = target: T2, human recombinant norepinephrine transporter (Homo sapiens, UniProt P23975); details: at 100 nM; cited from earlier work
T2 construct: expressed in transfected cells; host or cells: MDCK

[4] = target: T3, human recombinant dopamine transporter (Homo sapiens, UniProt Q01959); details: at 100 nM; cited from earlier work
T3 construct: expressed in transfected cells; host or cells: CHO-K1

[5] = tested on: humans; details: cited from earlier work

T1 sequence (P31645 whole entry): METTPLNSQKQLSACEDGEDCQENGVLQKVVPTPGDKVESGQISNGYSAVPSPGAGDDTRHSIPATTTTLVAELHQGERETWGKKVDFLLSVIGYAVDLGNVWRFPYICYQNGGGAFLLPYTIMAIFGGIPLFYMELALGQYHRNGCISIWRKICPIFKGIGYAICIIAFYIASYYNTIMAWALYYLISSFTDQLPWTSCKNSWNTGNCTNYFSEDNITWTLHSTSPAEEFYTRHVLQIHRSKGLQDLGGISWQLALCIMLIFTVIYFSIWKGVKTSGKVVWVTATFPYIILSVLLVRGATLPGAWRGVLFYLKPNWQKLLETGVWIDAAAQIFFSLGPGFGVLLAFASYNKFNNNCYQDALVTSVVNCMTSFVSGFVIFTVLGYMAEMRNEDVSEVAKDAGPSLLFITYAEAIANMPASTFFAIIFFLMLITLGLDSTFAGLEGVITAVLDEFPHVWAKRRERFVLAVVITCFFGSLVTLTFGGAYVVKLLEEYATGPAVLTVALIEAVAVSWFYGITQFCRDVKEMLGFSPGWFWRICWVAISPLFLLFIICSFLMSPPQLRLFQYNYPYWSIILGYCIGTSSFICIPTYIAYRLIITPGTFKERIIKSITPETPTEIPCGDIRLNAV
T2 sequence (P23975 whole entry): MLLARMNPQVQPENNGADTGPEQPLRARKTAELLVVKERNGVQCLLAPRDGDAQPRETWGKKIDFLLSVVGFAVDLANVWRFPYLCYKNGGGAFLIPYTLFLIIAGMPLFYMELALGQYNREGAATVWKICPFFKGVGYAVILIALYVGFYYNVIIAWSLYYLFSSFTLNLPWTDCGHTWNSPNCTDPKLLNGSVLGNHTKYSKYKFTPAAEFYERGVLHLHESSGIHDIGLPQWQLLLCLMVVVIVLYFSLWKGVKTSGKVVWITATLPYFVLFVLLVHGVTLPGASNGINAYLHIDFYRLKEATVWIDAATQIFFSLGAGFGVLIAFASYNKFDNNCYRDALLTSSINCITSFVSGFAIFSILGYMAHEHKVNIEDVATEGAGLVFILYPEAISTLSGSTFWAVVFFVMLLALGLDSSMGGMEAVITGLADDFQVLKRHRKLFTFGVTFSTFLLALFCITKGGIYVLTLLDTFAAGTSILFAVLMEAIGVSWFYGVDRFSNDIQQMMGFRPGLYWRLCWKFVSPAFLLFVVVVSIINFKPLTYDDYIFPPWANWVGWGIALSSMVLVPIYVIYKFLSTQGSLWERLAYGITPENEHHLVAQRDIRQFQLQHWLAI
T3 sequence (Q01959 whole entry): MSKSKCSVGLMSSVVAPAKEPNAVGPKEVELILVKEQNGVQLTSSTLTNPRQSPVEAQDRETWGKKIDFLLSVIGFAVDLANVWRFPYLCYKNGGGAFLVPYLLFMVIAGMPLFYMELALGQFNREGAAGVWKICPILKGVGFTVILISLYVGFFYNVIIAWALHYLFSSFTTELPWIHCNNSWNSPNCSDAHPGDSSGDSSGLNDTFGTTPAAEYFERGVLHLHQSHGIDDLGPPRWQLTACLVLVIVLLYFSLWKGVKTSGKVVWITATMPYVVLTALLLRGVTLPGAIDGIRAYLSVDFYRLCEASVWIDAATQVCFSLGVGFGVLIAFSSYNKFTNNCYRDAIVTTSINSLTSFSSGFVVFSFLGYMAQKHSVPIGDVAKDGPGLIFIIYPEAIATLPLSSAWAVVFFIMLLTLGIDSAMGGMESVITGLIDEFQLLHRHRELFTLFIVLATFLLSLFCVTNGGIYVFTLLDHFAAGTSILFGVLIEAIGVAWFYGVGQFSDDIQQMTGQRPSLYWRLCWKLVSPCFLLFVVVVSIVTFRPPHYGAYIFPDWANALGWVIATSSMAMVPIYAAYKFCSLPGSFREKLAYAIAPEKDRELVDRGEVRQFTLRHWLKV

SMILES | subtractive difference of reuptake inhibition percentages, at most [1] [%] | reuptake inhibition percentage, serotonin transporter [2] [%] | reuptake inhibition percentage, norepinephrine transporter [3] [%] | reuptake inhibition percentage, dopamine transporter [4] [%] | positive subjective effects in humans (comparators) [5]
c1ccc2cc([C@H]([C@H]3CCCNC3)n3nccn3)ccc2c1 [Example Compound 14, (3S)-3-[(S)-naphthalen-2-yl(2H-1,2,3-triazol-2-yl)methyl]piperidine] | 24 | 76 | 70 | 52 | 
Clc1ccc([C@]23CNCC2C3)cc1Cl (stereo partly drawn) [amitifadine] |  |  |  |  | does not produce positive subjective effects
CCOC[C@@H]1[C@@H](c2ccc(Cl)c(Cl)c2)C[C@@H]2CC[C@H]1N2C [tesofensine] |  |  |  |  | does not produce positive subjective effects

— US9637470B2, “Treatment for substance use disorders and stress disorders” (Baylor College of Medicine, priority 2013, dated 2017)
